Laboratory results as given in ChEMBL document CHEMBL1671652, “Efficacy of piperacillin combined with the Penem beta-lactamase inhibitor BLI-489 in murine models of systemic infection” (2009).
Values after ≈ are worked out from the molar mass of the structure shown.

What was measured:
[1] = test system: Salmonella typhimurium; assay: Antimicrobial activity against CTX-M-5 beta-lactamase producing Salmonella enterica serovar Typhimurium GC 4195 by broth microdilution method; format: functional, Salmonella enterica subsp. enterica serovar Typhimurium
[2] = test system: Enterobacter cloacae; assay: Antimicrobial activity against AmpC beta-lactamase producing Enterobacter cloacae GC 4142 by broth microdilution method; format: functional
[3] = test system: Pseudomonas aeruginosa; assay: Antimicrobial activity against AmpC beta-lactamase producing Pseudomonas aeruginosa GC 1764 by broth microdilution method; format: functional
[4] = test system: Escherichia coli; assay: Antimicrobial activity against ACT-1 beta-lactamase producing Escherichia coli GC 2814 by broth microdilution method; format: functional
[5] = test system: Escherichia coli; assay: Antimicrobial activity against OXA-1 beta-lactamase producing Escherichia coli GAR 5946 by broth microdilution method; format: functional
[6] = test system: Staphylococcus aureus; assay: Antimicrobial activity against penicillinase producing Staphylococcus aureus GC 6468 by broth microdilution method; format: functional
[7] = test system: Escherichia coli; assay: Antimicrobial activity against TEM-1 beta-lactamase producing Escherichia coli GC 6265 by broth microdilution method in presence of 8:1 ratio of compound to beta-lactamase inhibitor BLI-489; format: functional
[8] = test system: Klebsiella pneumoniae; assay: Antimicrobial activity against SHV-11 beta-lactamase producing Klebsiella pneumoniae GAR 7693 by broth microdilution method in presence of 8:1 ratio of compound to beta-lactamase inhibitor BLI-489; format: functional
[9] = test system: Escherichia coli; assay: Antimicrobial activity against TEM-10 beta-lactamase producing Escherichia coli GC 2022 by broth microdilution method in presence of 8:1 ratio of compound to beta-lactamase inhibitor BLI-489; format: functional
[10] = test system: Klebsiella pneumoniae; assay: Antimicrobial activity against SHV-1and SHV-5 beta-lactamase producing Klebsiella pneumoniae GAR 7978 by broth microdilution method in presence of 8:1 ratio of compound to beta-lactamase inhibitor BLI-489; format: functional
[11] = test system: Salmonella typhimurium; assay: Antimicrobial activity against CTX-M-5 beta-lactamase producing Salmonella enterica serovar Typhimurium GC 4195 by broth microdilution method in presence of 8:1 ratio of compound to beta-lactamase inhibitor BLI-489; format: functional, Salmonella enterica subsp. enterica serovar Typhimurium
[12] = test system: Enterobacter cloacae; assay: Antimicrobial activity against AmpC beta-lactamase producing Enterobacter cloacae GC 4142 by broth microdilution method in presence of 8:1 ratio of compound to beta-lactamase inhibitor BLI-489; format: functional
[13] = test system: Pseudomonas aeruginosa; assay: Antimicrobial activity against AmpC beta-lactamase producing Pseudomonas aeruginosa GC 1764 by broth microdilution method in presence of 8:1 ratio of compound to beta-lactamase inhibitor BLI-489; format: functional
[14] = test system: Escherichia coli; assay: Antimicrobial activity against ACT-1 beta-lactamase producing Escherichia coli GC 2814 by broth microdilution method in presence of 8:1 ratio of compound to beta-lactamase inhibitor BLI-489; format: functional
[15] = test system: Staphylococcus aureus; assay: Antimicrobial activity against penicillinase producing Staphylococcus aureus GC 6468 by broth microdilution method in presence of 8:1 ratio of compound to beta-lactamase inhibitor BLI-489; format: functional
[16] = test system: Escherichia coli; assay: Antimicrobial activity against TEM-1 beta-lactamase producing Escherichia coli GC 6265 by broth microdilution method in presence of beta-lactamase inhibitor Tazobactam; format: functional
[17] = test system: Klebsiella pneumoniae; assay: Antimicrobial activity against SHV-11 beta-lactamase producing Klebsiella pneumoniae GAR 7693 by broth microdilution method in presence of beta-lactamase inhibitor Tazobactam; format: functional
[18] = test system: Escherichia coli; assay: Antimicrobial activity against TEM-10 beta-lactamase producing Escherichia coli GC 2022 by broth microdilution method in presence of beta-lactamase inhibitor Tazobactam; format: functional
[19] = test system: Klebsiella pneumoniae; assay: Antimicrobial activity against SHV-1and SHV-5 beta-lactamase producing Klebsiella pneumoniae GAR 7978 by broth microdilution method in presence of beta-lactamase inhibitor Tazobactam; format: functional
[20] = test system: Salmonella typhimurium; assay: Antimicrobial activity against CTX-M-5 beta-lactamase producing Salmonella enterica serovar Typhimurium GC 4195 by broth microdilution method in presence of beta-lactamase inhibitor Tazobactam; format: functional, Salmonella enterica subsp. enterica serovar Typhimurium
[21] = test system: Enterobacter cloacae; assay: Antimicrobial activity against AmpC beta-lactamase producing Enterobacter cloacae GC 4142 by broth microdilution method in presence of beta-lactamase inhibitor Tazobactam; format: functional
[22] = test system: Pseudomonas aeruginosa; assay: Antimicrobial activity against AmpC beta-lactamase producing Pseudomonas aeruginosa GC 1764 by broth microdilution method in presence of beta-lactamase inhibitor Tazobactam; format: functional
[23] = test system: Escherichia coli; assay: Antimicrobial activity against ACT-1 beta-lactamase producing Escherichia coli GC 2814 by broth microdilution method in presence of beta-lactamase inhibitor Tazobactam; format: functional
[24] = test system: Escherichia coli; assay: Antimicrobial activity against OXA-1 beta-lactamase producing Escherichia coli GAR 5946 by broth microdilution method in presence of beta-lactamase inhibitor Tazobactam; format: functional
[25] = test system: Staphylococcus aureus; assay: Antimicrobial activity against penicillinase producing Staphylococcus aureus GC 6468 by broth microdilution method in presence of beta-lactamase inhibitor Tazobactam; format: functional
[26] = test system: Escherichia coli; assay: Antimicrobial activity against TEM-1 beta-lactamase producing Escherichia coli GC 6265 infected in CD-1 mouse treated 30 mins postinfection; format: functional; conditions: GC 6265, 0.5 h
[27] = test system: Escherichia coli; assay: Antimicrobial activity against TEM-1 beta-lactamase producing Escherichia coli GC 6265 infected in CD-1 mouse treated 30 mins postinfection in presence of 2:1 ratio of compound to beta-lactamase inhibitor BLI-489; format: functional; conditions: GC 6265, 0.5 h
[28] = test system: Escherichia coli; assay: Antimicrobial activity against TEM-1 beta-lactamase producing Escherichia coli GC 6265 infected in CD-1 mouse treated 30 mins postinfection in presence of 4:1 ratio of compound to beta-lactamase inhibitor BLI-489; format: functional; conditions: GC 6265, 0.5 h
[29] = test system: Escherichia coli; assay: Antimicrobial activity against TEM-1 beta-lactamase producing Escherichia coli GC 6265 infected in CD-1 mouse treated 30 mins postinfection in presence of 6:1 ratio of compound to beta-lactamase inhibitor BLI-489; format: functional; conditions: GC 6265, 0.5 h
[30] = test system: Escherichia coli; assay: Antimicrobial activity against TEM-1 beta-lactamase producing Escherichia coli GC 6265 infected in CD-1 mouse treated 30 mins postinfection in presence of 8:1 ratio of compound to beta-lactamase inhibitor BLI-489; format: functional; conditions: GC 6265, 0.5 h
[31] = test system: Escherichia coli; assay: Antimicrobial activity against TEM-1 beta-lactamase producing Escherichia coli GC 6265 infected in CD-1 mouse treated 30 mins postinfection in presence of 10:1 ratio of compound to beta-lactamase inhibitor BLI-489; format: functional; conditions: GC 6265, 0.5 h
[32] = test system: Escherichia coli; assay: Antimicrobial activity against TEM-1 beta-lactamase producing Escherichia coli GC 6265 infected in CD-1 mouse treated 30 mins postinfection in presence of 12:1 ratio of compound to beta-lactamase inhibitor BLI-489; format: functional; conditions: GC 6265, 0.5 h
[33] = test system: Escherichia coli; assay: Antimicrobial activity against TEM-1 beta-lactamase producing Escherichia coli GC 6265 infected in CD-1 mouse treated 30 mins postinfection in presence of 14:1 ratio of compound to beta-lactamase inhibitor BLI-489; format: functional; conditions: GC 6265, 0.5 h
[34] = test system: Enterobacter cloacae; assay: Antimicrobial activity against AmpC beta-lactamase producing Enterobacter cloacae GC 4142 infected in CD-1 mouse treated 30 and 150 min postinfection; format: functional
[35] = test system: Enterobacter cloacae; assay: Antimicrobial activity against AmpC beta-lactamase producing Enterobacter cloacae GC 4142 infected in CD-1 mouse treated 30 and 150 min postinfection in presence of 2:1 ratio of compound to beta-lactamase inhibitor BLI-489; format: functional
[36] = test system: Enterobacter cloacae; assay: Antimicrobial activity against AmpC beta-lactamase producing Enterobacter cloacae GC 4142 infected in CD-1 mouse treated 30 and 150 min postinfection in presence of 4:1 ratio of compound to beta-lactamase inhibitor BLI-489; format: functional

What does the source list for CCN1CCN(C(=O)N[C@@H](C(=O)N[C@@H]2C(=O)N3[C@@H]2SC(C)(C)[C@@H]3C(=O)O)c2ccccc2)C(=O)C1=O [PIPERACILLIN]?
MIC [1]: 8 µg/mL (≈ 15.5 µM); MIC [2]: 8 µg/mL (≈ 15.5 µM); MIC [3]: > 64 µg/mL; MIC [4]: 2 µg/mL (≈ 3.86 µM); MIC [5]: 2 µg/mL (≈ 3.86 µM); MIC [6]: > 64 µg/mL; MIC [7]: 4 µg/mL; MIC [8]: > 64 µg/mL; MIC [9]: > 64 µg/mL; MIC [10]: 8 µg/mL; MIC [11]: > 64 µg/mL; MIC [12]: > 64 µg/mL; MIC [13]: 4 µg/mL; MIC [14]: > 64 µg/mL; MIC [15]: 1 µg/mL; MIC [16]: 128 µg/mL; MIC [17]: > 64 µg/mL; MIC [18]: 2 µg/mL; MIC [19]: > 64 µg/mL; MIC [20]: > 64 µg/mL; MIC [21]: 4 µg/mL; MIC [22]: 32 µg/mL; MIC [23]: > 64 µg/mL; MIC [24]: 0.25 µg/mL; MIC [25]: 1 µg/mL; ED50 [26]: 176 mg/kg; ED50 [27]: 8.5 mg/kg; ED50 [28]: 12 mg/kg; ED50 [29]: 12 mg/kg; ED50 [30]: 12 mg/kg; ED50 [31]: 12 mg/kg; ED50 [32]: 11 mg/kg; ED50 [33]: 16 mg/kg; ED50 [34]: 282 mg/kg; ED50 [35]: 31 mg/kg; ED50 [36]: 30 mg/kg
